Test: tail vein bleeding time
Format: in vivo, mouse
Conditions: GMI-1271 alone, 20/kg IP BID; non-treated controls 53.8±7.5; not significantly elevated

CC[C@H]1C[C@@H](C(=O)NCCNC(=O)CCOCCOCCOCCOCCOCCOCCOCCOCCOCCOCCOCCOC)C[C@@H](O[C@@H]2O[C@H](CO)[C@H](O)[C@H](O[C@@H](CC3CCCCC3)C(=O)[O-])[C@H]2NC(C)=O)[C@@H]1O[C@@H]1O[C@@H](C)[C@@H](O)[C@@H](O)[C@@H]1O.[Na+] [GMI-1271]
tail bleeding time: 67.00 ± 44 s
